Source: patent US8435984B2, “Tertiary amine substituted peptides useful as inhibitors of HCV replication” (Achillion Pharmaceuticals, Inc., priority 2007, dated 2013)

What follows are compounds tested on HCV replicon (assay: HCV replicon replication assay (NPT ELISA) in Huh-7 replicon-containing cells). Conditions: Hepatitis C virus, 72 h; inhibition of HCV replicon replication, Huh-7 HCV replicon-containing cells, three days.
Format: cell-based, Hepatitis C virus
Method: Compounds claimed herein are tested for the ability to inhibit viral replication of the Hepatitis C replicon in cultured cells in which the HCV replicon construct has been incorporated. The HCV replicon system was described by Bartenschlager, et. al (Science, 285, pp. 110-113 (1999)). The replicon system is predictive of in vivo anti-HCV activity; compounds that are active in humans uniformly evidence activity in the replicon assay.
In this assay HCV replicon containing cells are treated with different concentrations of the test compound to ascertain the ability of the test compound to suppress replication of the HCV replicon. As a positive control, HCV replicon-containing cells are treated with different concentrations of interferon alpha, a known inhibitor of HCV replication. The replicon assay system includes Neomycin Phosphotransferase (NPT) as a component of the replicon itself in order to detect the transcription of replicon gene products in the host cell. Cells in which the HCV replicon is actively replicating have high levels of NPT; the level of NPT is proportional to HCV replication. […] The NPT level of each sample is measured using a captured ELISA.
The HCV replicon contains, 5′-3′, the HCV-IRES, the neomycin phosphotransferase (neo) gene, the IRES of encephalomyocarditis virus, which directs translation of HCV sequences NS3 to NS5B, and the 3′-NTR. The sequence of the HCV replicon has been deposited in GenBank (Accession no. AJ242652).
The replicon is transfected into Huh-7 cells using standard methods such as electroporation.
HCV replicon-containing cells are rinsed with once PBS once; 2 mls of trypsin are then added. Cells are incubated at 37° C. in a 5% CO2 incubator for 3-5 minutes. 10 mls of complete medium is added to stop the reaction. Cells are blown gently, put into a 15 ml tube, and spun at 1200 rpm for four minutes. The trypsin/medium solution is removed and 5 mls of medium (500 ml DMEM (high glucose)) from BRL catalog #12430-054; 50 mls 10% FBS, 5% Geneticin G418 (50 mg/ml, BRL catalog #10131-035), 5 ml MEM non-essential amino acids (100×BRL #11140-050) and 5 ml pen-strep (BRL #15140-148) is added. The cells and media are mixed carefully
Cells are plated with screening medium (500 ml DMEM (BRL #21063-029), 50 ml FBS (BRL #10082-147) and 5 ml MEM non-essential amino acid (BRL #11140-050) at 6000-7500 cells/100 μl/well of 96 well plate (6-7.5×10^5 cells/10 ml/plate). Plates are placed into 37° C. 5% CO2 incubator overnight. 6D. Assay
The following morning, drugs (test compounds or interferon alpha) are diluted in 96 well U bottom plates with media or DMSO/media, depending on the final concentration chosen for screening. Generally for 6 concentrations of each test compounds ranging from 10 micromolar to 0.03 micromolar are applied. 100 μl of the test compound dilution is placed in wells of the 96 well plate containing the HCV replicon cells. Media without drug is added to some wells as a negative controls. DMSO is known to affect cell growth. Therefore, if drugs diluted in DMSO are used, all wells, including negative control (media only) and positive control (interferon alpha) wells, must contain the same concentration of DMSO, for single dose screening. The plates are incubated at 37° C. in a humidified 5% CO2 environment for three days.
On day four, the NTPII assay is quantitated. The medium is poured from the plates and the plates are washed once in 200 μl of PBS. The PBS is then decanted and the plates tapped in a paper towel to remove any remaining PBS. Cells are fixed in situ with 100 id/well of pre-cooled (−20° C.) methanol:acetone (1:1) and the plates are placed at −20° C. for 30 minutes.
The fixing solution is poured from the plates and the plates allowed to air-dry completely (approximately one hour). The appearance of the dried cell layer is recorded and the density of the cells in the toxic wells is scored with the naked eye. […]

Compound | EC50 [µM]
C=CC1CC1(NC(=O)[C@@H]1C[C@@H](Oc2cc(-c3ccccc3)nc3cc(OC)ccc23)CN1C(=O)[C@H](C(C)C)N1CCCCC1)C(=O)O (stereo partly drawn) [Compound 57, 1-((2S,4R)-4-(7-methoxy-2-phenylquinolin-4-yloxy)-1-((S)-3-methyl-2-(piperidin-1-yl)butanoyl)pyrrolidine-2-carboxamido)-2-vinylcyclopropanecarboxylic acid] | < 100
C=CC1CC1(NC(=O)[C@@H]1C[C@@H](Oc2cc(-c3ccccc3)nc3cc(OC)ccc23)CN1C(=O)[C@H](C1CCCCC1)N1CCCCC1)C(=O)O (stereo partly drawn) [Compound 58, 1-((2S,4R)-1-((S)-2-cyclohexyl-2-(piperidin-1-yl)acetyl)-4-(7-methoxy-2-phenylquinolin-4-yloxy)pyrrolidine-2-carboxamido)-2-vinylcyclopropanecarboxylic acid] | < 100
C=CC1CC1(NC(=O)[C@@H]1C[C@@H](Oc2cc(-c3ccccc3)nc3cc(OC)ccc23)CN1C(=O)[C@H](C)N1CCCCC1)C(=O)O (stereo partly drawn) [Compound 59, 1-((2S,4R)-4-(7-methoxy-2-phenylquinolin-4-yloxy)-1-((S)-2-(piperidin-1-yl)propanoyl)pyrrolidine-2-carboxamido)-2-vinylcyclopropanecarboxylic acid] | > 100
CCOC(=O)C12CC1/C=C\CCCCC[C@H](N1CCCCC1)C(=O)N1C[C@H](Oc3cc(-c4ccccc4)nc4cc(OC)ccc34)C[C@H]1C(=O)N2 (stereo partly drawn) [Compound 60, (2R,6S,16aS,Z)-ethyl 2-(7-methoxy-2-phenylquinolin-4-yloxy)-5,16-dioxo-6-(piperidin-1-yl)-1,2,3,5,6,7,8,9,10,11,13a,14,14a, 15,16,16a-hexadecahydrocyclopropa [e]pyrrolo[1,2-a] [1,4]diazacyclopentadecine-14a-carboxylatc] | < 100
COc1ccc2c(O[C@@H]3C[C@H]4C(=O)NC5(C(=O)O)CC5/C=C\CCCCC[C@H](N5CCCCC5)C(=O)N4C3)cc(-c3ccccc3)nc2c1 (stereo partly drawn) [Compound 61, (2R,6S,16aS,Z)-2-(7-methoxy-2-phenylquinolin-4-yloxy)-5,16-dioxo-6-(pipcridin-1-yl)-1,2,3,5,6,7,8,9,10,11,13a,14,14a, 15,16,16a-hexadecahydrocyclopropa [e]pyrrolo[1,2-a] [1,4]diazacyclopentadecine-14a-carboxylic acid] | < 100
CCOC(=O)[C@]12C[C@@H]1/C=C\CCCCC[C@H](N1CCCCC1)C(=O)N1C[C@H](Oc3cc(-c4ccccc4)nc4cc(OC)ccc34)C[C@H]1C(=O)N2 [Compound 62, (2R,6S,13aR,14aS,16aS,Z)-ethyl 2-(7-methoxy-2-phenylquinolin-4-yloxy)-5,16-dioxo-6-(piperidin-1-yl)-1,2,3,5,6,7,8,9,10,11,13a,14,14a, 15,16,16a-hexadecahydrocyclopropa [e]pyrrolo[1,2-a] [1,4]diazacyclopentadecine-14a-carboxylate] | < 100
CCOC(=O)[C@@]12C[C@H]1/C=C\CCCCC[C@H](N1CCCCC1)C(=O)N1C[C@H](Oc3cc(-c4ccccc4)nc4cc(OC)ccc34)C[C@H]1C(=O)N2 [Compound 63, (2R,6S,13aS,14aR,16aS,Z)-ethyl 2-(7-methoxy-2-phenylquinolin-4-yloxy)-5,16-dioxo-6-(piperidin-1-yl)-1,2,3,5,6,7,8,9,10,11,13a,14,14a, 15,16,16a-hexadecahydrocyclopropa [e]pyrrolo[1,2-a] [1,4]diazacyclopentadecine-14a-carboxylate] | < 100
C=CC1CC1(NC(=O)[C@@H]1C[C@@H](Oc2cc(-c3ccccc3)nc3cc(OC)ccc23)CN1C(=O)[C@H](C1CCCCC1)N1CCCCC1)C(=O)NS(=O)(=O)C1CC1 (stereo partly drawn) [Compound 64, (2S,4R)-1-((S)-2-cyclohexyl-2-(piperidin-1-yl)acetyl)-N-(1-(cyclopropylsulfonylcarbamoyl)-2-vinylcyclopropyl)-4-(7-methoxy-2-phenylquinolin-4-yloxy)pyrrolidine-2-carboxamide] | < 100
C=C[C@H]1C[C@@]1(NC(=O)[C@@H]1C[C@@H](Oc2cc(-c3ccccc3)nc3cc(OC)ccc23)CN1C(=O)[C@H](c1ccccc1)N1CCCCC1)C(=O)NS(=O)(=O)C1CC1 [Compound 65, (2S,4R)-N-((1S,2R)-1-(cyclopropylsulfonylcarbamoyl)-2-vinylcyclopropyl)-4-(7-methoxy-2-phenylquinolin-4-yloxy)-1-((S)-2-phenyl-2-(piperidin-1-yl)acetyl)pyrrolidine-2-carboxamide] | < 100
C=C[C@@H]1C[C@]1(NC(=O)[C@@H]1C[C@@H](Oc2cc(-c3ccccc3)nc3cc(OC)ccc23)CN1C(=O)[C@H](c1ccccc1)N1CCCCC1)C(=O)NS(=O)(=O)C1CC1 [Compound 66, (2S,4R)-N-((1R,2S)-1-(cyclopropylsulfonylcarbamoyl)-2-vinylcyclopropyl)-4-(7-methoxy-2-phenylquinolin-4-yloxy)-1-((S)-2-phenyl-2-(piperidin-1-yl)acetyl)pyrrolidine-2-carboxamide] | < 100
C=CC1CC1(NC(=O)[C@@H]1C[C@@H](Oc2cc(-c3ccccc3)nc3cc(OC)ccc23)CN1C(=O)[C@H](C)N1CCCCC1)C(=O)NS(=O)(=O)C1CC1 (stereo partly drawn) [Compound 67, (2S,4R)-N-(1-(cyclopropylsulfonylcarbamoyl)-2-vinylcyclopropyl)-4-(7-methoxy-2-phenylquinolin-4-yloxy)-1-((S)-2-(piperidin-1-yl)propanoyl)pyrrolidine-2-carboxamide] | < 100
C=CC1CC1(NC(=O)[C@@H]1C[C@@H](Oc2cc(-c3ccccc3)nc3cc(OC)ccc23)CN1C(=O)[C@H](C(C)C)N1CCCCC1)C(=O)NS(=O)(=O)C1CC1 (stereo partly drawn) [Compound 68, (2S,4R)-N-(1-(cyclopropylsulfonylcarbamoyl)-2-vinylcyclopropyl)-4-(7-methoxy-2-phenylquinolin-4-yloxy)-1-((S)-3-methyl-2-(piperidin-1-yl)butanoyl)pyrrolidine-2-carboxamide] | < 100
C=CC1CC1(NC(=O)[C@@H]1C[C@@H](Oc2cc(-c3ccccc3)nc3cc(OC)ccc23)CN1C(=O)[C@H](CC(C)C)N1CCCCC1)C(=O)NS(=O)(=O)C1CC1 (stereo partly drawn) [Compound 69, (2S,4R)-N-(1-(cyclopropylsulfonylcarbamoyl)-2-vinylcyclopropyl)-4-(7-methoxy-2-phenylquinolin-4-yloxy)-1-((S)-4-methyl-2-(piperidin-1-yl)pentanoyl)pyrrolidine-2-carboxamide] | < 100
